Test results taken from US20160287646A1, “MACROALGAE COMPOSITIONS, PROCESSES FOR PREPARATION THEREOF, AND USES IN SPORTS NUTRITION” (OmniActive Health Technologies (Canada) Limited, priority 2015, published 2016).

Key:
[1] = tested on: H295R cells; assay: Cortisol production immunoassay in H295R cells; assay type: cell-based, human; conditions: 24 h incubation
Experimental: It is a human adrenal cell line that presents a steroid secretion pattern and regulation similar to primary cultures of adrenal cells.
Cells were then incubated in the presence or absence of macroalgae composition for 24 h before assessing cortisol production.
To evaluate the effect of treatment with macroalgae composition on cortisol concentrations in H295R cells, the DetectX® (Arbor Assays) immunoassay was utilized. A cortisol standard was provided to generate a standard curve for the assay and all samples were read off the standard curve. Standards or samples were pipetted into a clear microtiter plate coated with an antibody. A cortisol-peroxidase conjugate was added to the standards and samples in the wells. The binding reaction was initiated by the addition of a monoclonal antibody to cortisol to each well. After 1 hour incubation, the plate was washed and substrate was added. The substrate reacted with the bound cortisol-peroxidase conjugate. After a short incubation, the reaction was stopped and the intensity of the generated color was detected in a microtiter plate reader capable of measuring 450 nm wavelength. The concentration of cortisol in the samples was then calculated.

[2] = tested on: C2C12 cells; assay: Mitochondrial oxygen consumption (MitoXpress probe) in differentiated C2C12 cells; assay type: cell-based, mouse; conditions: macroalgae composition 100 ug/ml
Experimental: (§1) Mouse skeletal myoblasts C2C12 cells were used as a cell model to assess mitochondrial function and IGF-1 expression. Cells were cultured as undifferentiated myoblasts in high-serum growth media DMEM (Dulbecco's Modified Eagle Medium), supplemented with 10% FBS (Fetal bovine serum) and 1% penicillin/streptomycin. Cells were grown to full confluency at 37° C. in a humidified incubator with 5% CO2.
Extracellular oxygen consumption in differentiated C2C12 cells was measured by assessing phosphorescence of a porphyrin-based, water soluble, oxygen sensitive probe (MitoXpress®-Xtra-HS, Luxcel Biosciences). Probe fluorescence is quenched by molecular oxygen (O2), resulting in lower probe signal. As cellular respiration reduces the concentration of O2, probe signal increases. The rate of this increase is related to the rate of cellular oxygen consumption. C2C12 cells were seeded in 96-well culture plates at a density of 2×10^4 cells/mL, induced to differentiate, and incubated with MitoXpress probe ([…] the presence or absence of macroalgae composition (100 ug/ml). High sensitivity mineral oil was added (100 μL/well) to increase assay sensitivity by minimizing interference from ambient O2. Probe fluorescence was measured (excitation 380 nm, emission 645 nm) using a fluorescence plate reader.

[3] = tested on: C2C12 cells; assay: ATP production colorimetric assay in C2C12 myotubes; assay type: cell-based, mouse; conditions: extracts 100 ug/mL, caffeine 500 uM, creatine 1 uM, control 99.99
Experimental: C2C12 cells (ATCC® CRL-1772) were seeded in 24- or 96-well culture plates as undifferentiated myoblasts and grown to 100% confluency in ATCC-formulated Dulbecco's Modified Eagle's Medium (DMEM) supplemented with 10% heat-inactivated fetal bovine serum (FBS). […] Differentiation medium consisted of ATCC-formulated DMEM supplemented with 2% heat-inactivated horse serum and was changed daily during the differentiation process. Cell culture conditions were maintained at 37° C. in a humidified atmosphere of 5% CO2/95% air. After 5 days of differentiation, cells were incubated in the presence or absence of macroalgae composition (with control). […] The effect of select macroalgae compositions were assessed using the following assays:
To evaluate the effect of macroalgae composition on ATP levels, colorimetric assay kit (Sigma-Aldrich, St. Louis, Mo.) was used, which is an enzyme-linked approach that involves the conversion of ATP in the test sample to ADP via the action of glycerol kinase which catalyses the transfer of the phosphate group to glycerol. The reaction was monitored by use of colorimetric product whose concentration varies proportional to the amount of ATP present. […] After 30 minutes, the absorbance at 570 nm will be measured using a microplate reader, and ATP concentrations will be extrapolated from a standard curve.

[4] = tested on: insulin-like growth factor-1 (IGF-1); assay: IGF-1 ELISA in differentiated C2C12 cells; assay type: cell-based, mouse; conditions: cell culture supernatants
Experimental: as §1
To evaluate the effect of treatment with macroalgae composition on insulin-like growth factor-1 (IGF-1) concentrations in differentiated C2C12 cells, the mouse IGF-1 enzyme-linked immunosorbent assay (ELISA) kit (Sigma) was utilized. The kit provides a quantitative measurement of mouse IGF-1 in cell culture supernatants by employing an antibody specific coated 96-well plate. Standards and samples were added to the coated plate and any IGF-1 present in the sample bound to the immobilized antibody. After washing away any unbound antibody, HRP-conjugated streptavidin was added to the wells. The wells were washed again, followed by addition of a colorimetric TMB reagent. Color developed in proportion to the amount of bound IGF-1. Addition of a stop solution changed the color from blue to yellow, and the color intensity was read at A450 with a microplate reader. Blank-corrected unknown sample protein concentrations were then extrapolated from a known standard curve.

[5] = tested on: PGC-1α; assay: PGC-1alpha ELISA in differentiated C2C12 cells; assay type: cell-based, mouse; conditions: overnight treatment, extracts 100 ug/mL, caffeine 500 uM, resveratrol 100 uM, control 100.01
Experimental: C2C12 cells (ATCC® CRL-1772) were seeded in 24- or 96-well culture plates as undifferentiated myoblasts and grown to 100% confluency in ATCC-formulated Dulbecco's Modified Eagle's Medium (DMEM) supplemented with 10% heat-inactivated fetal bovine serum (FBS). […] Differentiation medium consisted of ATCC-formulated DMEM supplemented with 2% heat-inactivated horse serum and was changed daily during the differentiation process. Cell culture conditions were maintained at 37° C. in a humidified atmosphere of 5% CO2/95% air. After 5 days of differentiation, cells were incubated in the presence or absence of macroalgae composition (with control). Cells were treated with macroalgae compositions and also control samples to check effect on said biomarkers. The compositions and control samples used are mentioned in the respective table, showing results of the test. The effect of select macroalgae compositions were assessed using the following assays: Concentrations of PGC-1α in differentiated C2C12 cells as a result of treatment with macroalgae composition were determined by ELISA (MyBiosource). Following overnight treatment, cell lysates were collected and centrifuged to remove cellular debris. […] The amount of PGC-1α captured by the anti-PGC-1α antibody was determined using a biotinylated-IgG antibody/HRP-streptavidin detection system.

[6] = tested on: C2C12 cells; assay: Glycogen synthesis colorimetric assay in differentiated C2C12 cells; assay type: cell-based, mouse; conditions: for Glycogen Content - glucose + insulin: 30 mM glucose + 100 nM insulin, compared to non-treated samples (glucose only 100.0); for Glycogen Content - glucose only: 30 mM glucose, compared to non-treated samples (100.0)
Experimental: (§2) C2C12 cells (ATCC® CRL-1772) were seeded in 24- or 96-well culture plates as undifferentiated myoblasts and grown to 100% confluency in ATCC-formulated Dulbecco's Modified Eagle's Medium (DMEM) supplemented with 10% heat-inactivated fetal bovine serum (FBS). […] Differentiation medium consisted of ATCC-formulated DMEM supplemented with 2% heat-inactivated horse serum and was changed daily during the differentiation process. Cell culture conditions were maintained at 37° C. in a humidified atmosphere of 5% CO2/95% air. After 5 days of differentiation, cells were incubated in the presence or absence of macroalgae composition (with control). Cells were treated with macroalgae compositions and also control samples to check effect on said biomarkers. The compositions and control samples used are mentioned in the respective table, showing results of the test. The effect of select macroalgae compositions were assessed using the following assays:
(§3) Glucose uptake in C2C12 cells was determined by bioluminescent assay (Promega), based on the detection of 2-deoxyglucose-6-phosphate (2DG6P). When […] to cells, it is transported across the membrane and rapidly phosphorylated. However, further modification is not possible, resulting in accumulation within the cell. Addition of a 2DG6P detection reagent, leading to the generation of NADPH from 2DG6P, luciferin from NADPH, and light from luciferin, allows for detection of a bioluminescent signal. Overall, the luminescent signal is proportional to the concentration of 2DG6P, and thus the rate of glucose uptake. Glycogen synthesis was determined in cell culture lysates from differentiated C2C12 cells using a colorimetric assay kit from BioVision Inc. This involves the addition of glucoamylase to the samples that hydrolyzes glycogen to glucose; the glucose is then oxidized to form an intermediate that reduces OxiRed, forming a colored product with strong absorbance at 570 nm.

[7] = tested on: C2C12 cells; assay: Glucose uptake bioluminescent assay (2DG6P) in C2C12 cells; assay type: cell-based, mouse; conditions: for Glucose Uptake - glucose + insulin: 25 mM glucose + 1 uM insulin, compared to non-treated samples (glucose only 100.0)
Experimental: as §2, §3

[8] = tested on: C2C12 cells; assay: Mitochondrial mass (NAO probe fluorescence) in differentiated C2C12 cells; assay type: cell-based, mouse; conditions: fluorescent intensity relative to untreated control
Experimental: as §1
The effect of treatment with macroalgae composition on mitochondrial mass was assessed by measuring changes in fluorescent intensity in differentiated C2C12 cells. The nonylacridine orange (NAO) probe binds to cardiolipin in all mitochondria, regardless of their energetic state, providing a measure of mitochondrial mass and an indication of mitochondrial biogenesis. C2C12 cells were seeded in 96-well culture plates at a density of 2×10^4 cells/mL, induced to differentiate, and pre-treated with or without select macroalgae composition and controls. […] Probe fluorescence was measured (excitation 380 nm, emission 645 nm) using a fluorescence plate reader. Fluorescent intensity relative to untreated control was then calculated. To standardize probe fluorescence to protein content of the cells, total protein content (in μg) was assessed by bicinchoninic acid (BCA) using bovine serum albumin as standard.

[9] = tested on: p70S6k; assay: BioPlex cell signaling assay, relative phosphorylation of p70S6k in C2C12 cells; assay type: cell-based, mouse; conditions: differentiated C2C12 cells pre-treated 2 hours; ratio of fluorescence of phospho-protein to total protein
Experimental: (§4) The effects of macroalgae composition on biomarkers of sport nutrition based on protein synthesis platform were evaluated, wherein the compositions were tested with an initial MTT assay (MIT is a name of dye 3-(4,5-dimethylthiazol-2-yl)-2,5-diphenyltetrazolium bromide) to determine cytotoxicity and establish dose range for testing.
(§5) Test inputs chosen for the protein synthesis assay platform were assessed using BioPlex (BioRad) cell signaling assays, based on the principle of the sandwich ELISA. Capture antibodies directed against the desired biomarker were covalently coupled to magnetic beads, which reacted with the sample containing the biomarker of interest. After a series of wash steps to remove any unbound protein, a biotinylated detection antibody was added to create a “sandwich” complex. The final detection complex was formed with the addition of a streptavidin-phycoerythrin (SA-PE) conjugate, which serves as a fluorescent indicator. […] The beads were then re-suspended in assay buffer and read on the BioPlex MAGPIX system. […]
(§6) Phospho-PKB/PKB, Phospho-mTOR/mTOR, Phospho-p70S6k/p70S6k, their effects were more pronounced than creatine or whey protein. In Table 3 below, Phospho-PKB/PKB, Phospho-mTOR/mTOR, and Phospho-p70S6k/p70S6k are expressed as a ratio of the fluorescence of the phospho-protein divided by the fluorescence of the total protein.

[10] = tested on: mTOR (the mammalian target of rapamycin); assay: BioPlex cell signaling assay, relative phosphorylation of mTOR in C2C12 cells; assay type: cell-based, mouse; conditions: differentiated C2C12 cells pre-treated 2 hours; ratio of fluorescence of phospho-protein to total protein
Experimental: as §4, §5, §6

[11] = tested on: Akt; assay: BioPlex cell signaling assay, relative phosphorylation of Akt (PKB) in C2C12 cells; assay type: cell-based, mouse; conditions: differentiated C2C12 cells pre-treated 2 hours; ratio of fluorescence of phospho-protein to total protein
Experimental: as §4, §5, §6

Row | Compound | Cortisol [1] | Mitochondrial Oxygen consumption [2] | ATP production, Relative to Control [3] | IGF-1 [4] | PGC1-alpha production, Relative to Control [5] | Glycogen Content - glucose + insulin [6] [%] | Glycogen Content - glucose only [6] [%] | Glucose Uptake - glucose + insulin [7] [%] | Mitochondrial Mass [8] | Phospho-p70S6k/p70S6k [9] | Phospho-mTOR/mTOR [10] | Phospho-PKB/PKB [11] | Glucose (G) Uptake - glucose only ([7]; 25 mM glucose, compared to non-treated samples (100.0)) [%]
1 | Cn1c(=O)c2c(ncn2C)n(C)c1=O [Caffeine] | 65 | 157 | 225.83 | 130 | 192.96 | 164.7 | 115.3 | 198.7 | 146 |  |  |  | 
2 | CN(CC(=O)O)C(=N)N [Creatine] |  |  | 233.17 |  |  |  |  |  |  | 162 | 192 | 191 | 
3 | CC(C)C[C@H](N)C(=O)O [Leucine] | 65.3 | 144 |  | 127 |  | 158.2 | 111.1 | 203.7 | 157 |  |  |  | 
4 | Oc1ccc(C=Cc2cc(O)cc(O)c2)cc1 [Resveratrol] |  |  |  |  | 220.96 | 223.9 | 142.9 | 291.0 |  |  |  |  | 132.4
5 | Insulin: control in protein synthesis assay; co-stimulus in glucose uptake and glycogen assays |  |  |  |  |  | 153.6 |  | 189.5 |  | 241 | 311 | 315 | 
